Laboratory results published in patent US12371428B2 (Exelixis, Inc., priority 2019, dated 2025).
Where two headings read alike, the source gives them in different places.

Experiments:
[1] = biological target: Human AXL (residues 464-885) (Homo sapiens (Human), UniProt P30530); assay: Human AXL kinase assay, HTRF KinEase (Example A-2); assay type: biochemical
Protocol: Kinase activity and compound inhibition were also investigated using the HTRF® KinEase assay (Cisbio Cat #62TKOPEB) per manufacturer's instructions. In short, compounds were delivered in 300 nL volumes at 10 different concentrations in DMSO (3% final) to empty 384-well assay plates (Corning cat #3824). A mixture of enzyme, […] biotynlated peptide substrate, and buffer in 10 μL volume was added. The assay was started upon the addition of ATP (at Km). The 10 μL reaction was incubated at room temperature. The reaction was stopped upon the addition of detection buffer containing streptavidin-XL665 ([…]) and TK antibody-Eu3+(5 L).
Kinase activity normalized to DMSO (100% activity) and reference compound at […] and (0% activity) was calculated using the fluorescence ratio […]. IC50 values were calculated by nonlinear regression analysis using a 4-parameter logistic curve fit in ActivityBase XE (IDBS).
The mixture was added to the pre-plated compounds. […] The reaction was incubated at room temperature for 50 min and stopped upon the addition of SA-XL665 and TK-antibody both diluted in EDTA-containing kinase detection buffer (Cisbio). The kinase activity was calculated as stated above and the IC50 values were reported.

[2] = biological target: AXL (phospho-AXL, Gas6-stimulated A-172 glioblastoma cells) (Homo sapiens (Human), UniProt P30530); assay: AXL autophosphorylation ELISA in A-172 cells (Example E); assay type: cell-based; details: cellular activity; AXL autophosphorylation ELISA in A-172 cells; read-out: Axl IC50
Outline: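 Phospho-AXL in lysates was quantified by ELISA, normalised to DMSO (100%) and reference inhibitor (0%) controls. IC50 by 4-parameter logistic fit.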

[3] = biological target: Human Mer (residues R557-E882 with H628Q and R794A) (Homo sapiens, UniProt Q12866); assay: Human Mer kinase assay, 33P-phosphoryl transfer radiometric (Example C-1, KinaseProfiler); assay type: biochemical
Protocol: Kinase activity and compound inhibition were investigated using the ^33P-Phosphoryl transfer radiometric kinase assay, performed using the KinaseProfiler™ service of Eurofins Pharma Discovery Services UK Limited. Dose-response experiments were performed using nine compound concentrations in a 96-well microtiter plate. For each assay, all compounds were prepared to a 50× final assay concentration (50 μM) in 100% DMSO, then diluted in a half-log series, with the final top concentration at 1 μM. This working stock of the compound was added to the assay well as the first component in the reaction, followed by the remaining components as detailed in the following assay protocols below. The positive control wells (100% kinase activity) contain all components of the reaction including 2% DMSO (control for solvent effects), except the compound of interest. Blank wells contain all components of the reaction, with the reference inhibitor, staurosporine. This reference compound was used to abolish kinase activity and generated the 0% kinase activity base-line. IC50 values were calculated by nonlinear regression analysis using the sigmoidal dose-response (variable slope) curve fit on XLFit version 5.3 (ID Business Solutions).
Example C-1: Human Mer (residues R557-E882 with H628Q and R794A, 0.7 nM) was incubated with 8 mM MOPS pH 7.0, 0.2 mM EDTA, 30 mM NaCl, 250 μM […] (SEQ ID NO:2), 10 mM magnesium acetate, and 10 μM [γ-^33P-ATP]. The reaction was initiated by the addition of the Mg/ATP mix. After incubation for 40 minutes at room temperature, the reaction was stopped by the addition of phosphoric acid to a concentration of 0.5%. A reaction aliquot of 10 μL was then spotted onto a P30 filtermat and washed four times for 4 minutes in 0.425% phosphoric acid and once in methanol prior to drying and scintillation counting. Incorporated ^33P was measured using the Wallac Microbeta scintillation counter (Perkin Elmer).

[4] = protocol of Example A-2 (other compounds)
[5] = protocol of Example C-1 (compounds 21-27, 41-47, 99, 104)

Chain of Human Mer (residues R557-E882 with H628Q and R794A) (Q12866 21-999 limits assumed, stated change not applied): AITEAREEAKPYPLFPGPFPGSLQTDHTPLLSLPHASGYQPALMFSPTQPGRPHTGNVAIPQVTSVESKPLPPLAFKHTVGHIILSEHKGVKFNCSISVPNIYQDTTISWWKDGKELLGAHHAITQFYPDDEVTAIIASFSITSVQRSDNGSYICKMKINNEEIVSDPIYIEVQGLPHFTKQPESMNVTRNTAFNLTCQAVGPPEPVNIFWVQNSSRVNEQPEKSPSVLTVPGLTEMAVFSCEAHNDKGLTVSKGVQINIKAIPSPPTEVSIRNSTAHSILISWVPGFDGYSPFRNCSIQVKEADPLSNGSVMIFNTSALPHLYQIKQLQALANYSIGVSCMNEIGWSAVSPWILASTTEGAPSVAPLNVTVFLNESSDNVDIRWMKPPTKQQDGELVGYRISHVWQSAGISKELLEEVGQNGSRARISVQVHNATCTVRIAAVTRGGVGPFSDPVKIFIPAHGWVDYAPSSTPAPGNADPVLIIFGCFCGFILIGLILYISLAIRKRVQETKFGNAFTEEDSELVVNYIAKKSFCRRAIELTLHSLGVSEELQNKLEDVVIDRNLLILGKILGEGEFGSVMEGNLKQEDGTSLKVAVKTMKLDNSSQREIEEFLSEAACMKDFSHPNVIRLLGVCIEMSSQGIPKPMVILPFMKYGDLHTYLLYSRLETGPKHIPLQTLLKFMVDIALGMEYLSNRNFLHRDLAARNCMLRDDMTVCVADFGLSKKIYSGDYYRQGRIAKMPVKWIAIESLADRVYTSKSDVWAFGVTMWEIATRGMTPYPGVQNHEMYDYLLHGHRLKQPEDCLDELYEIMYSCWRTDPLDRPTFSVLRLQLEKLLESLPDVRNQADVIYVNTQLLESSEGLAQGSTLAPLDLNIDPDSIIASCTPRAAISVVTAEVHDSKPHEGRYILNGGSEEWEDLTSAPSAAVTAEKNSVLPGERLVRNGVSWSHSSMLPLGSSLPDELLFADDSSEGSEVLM
Chain of Human AXL (residues 464-885) (P30530 473-894): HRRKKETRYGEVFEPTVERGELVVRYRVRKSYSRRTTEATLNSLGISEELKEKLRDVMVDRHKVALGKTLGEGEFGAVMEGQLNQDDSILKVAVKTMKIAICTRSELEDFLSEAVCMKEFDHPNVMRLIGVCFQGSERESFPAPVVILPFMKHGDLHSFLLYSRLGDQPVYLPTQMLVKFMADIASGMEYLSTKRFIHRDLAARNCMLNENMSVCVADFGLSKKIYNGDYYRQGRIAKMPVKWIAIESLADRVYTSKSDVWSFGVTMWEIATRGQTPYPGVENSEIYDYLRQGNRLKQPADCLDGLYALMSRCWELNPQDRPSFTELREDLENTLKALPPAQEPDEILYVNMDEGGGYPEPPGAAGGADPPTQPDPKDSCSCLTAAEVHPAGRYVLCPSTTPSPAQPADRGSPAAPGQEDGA
Chain of AXL (phospho-AXL, Gas6-stimulated A-172 glioblastoma cells) (P30530 26-894): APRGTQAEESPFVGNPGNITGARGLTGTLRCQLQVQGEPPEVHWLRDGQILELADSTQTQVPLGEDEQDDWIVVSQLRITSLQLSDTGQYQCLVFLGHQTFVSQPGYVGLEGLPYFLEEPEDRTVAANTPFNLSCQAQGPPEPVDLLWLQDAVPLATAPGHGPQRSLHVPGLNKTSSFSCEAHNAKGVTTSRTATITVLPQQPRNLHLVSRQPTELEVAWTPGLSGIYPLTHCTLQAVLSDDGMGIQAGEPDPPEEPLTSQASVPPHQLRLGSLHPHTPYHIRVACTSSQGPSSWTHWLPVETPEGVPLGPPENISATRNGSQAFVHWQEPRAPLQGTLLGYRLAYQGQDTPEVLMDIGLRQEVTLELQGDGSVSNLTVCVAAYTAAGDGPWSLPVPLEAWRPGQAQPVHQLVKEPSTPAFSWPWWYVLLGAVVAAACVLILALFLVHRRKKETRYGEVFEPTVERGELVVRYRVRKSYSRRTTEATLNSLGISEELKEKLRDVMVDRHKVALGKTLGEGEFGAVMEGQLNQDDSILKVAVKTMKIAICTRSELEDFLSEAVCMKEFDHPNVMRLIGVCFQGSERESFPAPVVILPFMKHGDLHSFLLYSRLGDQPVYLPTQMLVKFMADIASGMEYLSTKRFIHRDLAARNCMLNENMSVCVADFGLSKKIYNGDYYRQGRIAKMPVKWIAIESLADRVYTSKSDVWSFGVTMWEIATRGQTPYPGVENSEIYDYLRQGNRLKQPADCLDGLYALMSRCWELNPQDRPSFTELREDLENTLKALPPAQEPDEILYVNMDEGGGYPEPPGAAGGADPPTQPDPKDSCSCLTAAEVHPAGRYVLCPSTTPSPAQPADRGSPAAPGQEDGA

Row | SMILES | IC50 [2] | IC50 [3, 5] | also measured
1 | COc1cc2nccc(Oc3ccc(NC(=O)c4c(C)nc(C)c(-c5ccc(F)cc5)c4O)cc3F)c2nc1OC [Compound 154, N-[4-[(6,7-Dimethoxy-1,5-naphthyridin-4-yl)oxy]-3-fluorophenyl]-5-(4-fluorophenyl)-4-hydroxy-2,6-dimethylpyridine-3-carboxamide] | < 100 nM | – | IC50 [1, 4]: < 100 nM
2 | C=C(C)c1cnc2c(Oc3ccc(NC(=O)c4c(C)cc(C)n(-c5ccc(F)cc5)c4=O)cc3F)ccnc2c1 [Compound 457, 1-(4-fluorophenyl)-N-[3-fluoro-4-[(7-prop-1-en-2-yl-1,5-naphthyridin-4-yl)oxy]phenyl]-4,6-dimethyl-2-oxopyridine-3-carboxamide] | < 100 nM | – | IC50 ([1]; protocol of Example A-2): < 100 nM
3 | COc1cc2nccc(Oc3ccc(NC(=O)c4cn(C(C)C)cc(-c5ccc(F)cc5)c4=O)cc3F)c2nc1OC [Compound 44, N-[4-[(6,7-Dimethoxy-1,5-naphthyridin-4-yl)oxy]-3-fluorophenyl]-5-(4-fluorophenyl)-4-oxo-1-propan-2-ylpyridine-3-carboxamide] | – | < 100 nM | –
4 | COCCOc1ccc2nccc(Oc3ccc(NC(=O)c4cnc(C)c(-c5ccc(F)cc5)c4O)cc3F)c2n1 [Compound 348, N-[3-fluoro-4-[[6-(2-methoxyethoxy)-1,5-naphthyridin-4-yl]oxy]phenyl]-5-(4-fluorophenyl)-4-hydroxy-6-methylpyridine-3-carboxamide] | < 100 nM | – | IC50 [1, 4]: < 100 nM
5 | COc1cc2nccc(Oc3ccc(NC(=O)c4cn(C(C)C)c(C)c(-c5ccc(Cl)c(Cl)c5)c4=O)cc3F)c2cc1OC [Compound 23, 5-(3,4-Dichlorophenyl)-N-[4-(6,7-dimethoxyquinolin-4-yl)oxy-3-fluorophenyl]-6-methyl-4-oxo-1-propan-2-ylpyridine-3-carboxamide] | – | – | IC50 [3]: 100 to 300 nM
6 | COc1cc2nccc(Oc3ccc(NC(=O)c4cn(C(C)C)cc(-c5ccc(F)cc5)c4=O)cc3F)c2cc1OC [Compound 43, N-[4-(6,7-Dimethoxyquinolin-4-yl)oxy-3-fluorophenyl]-5-(4-fluorophenyl)-4-oxo-1-propan-2-ylpyridine-3-carboxamide] | – | < 100 nM | –
7 | COc1cc2nccc(Oc3ccc(NC(=O)c4cn(C(C)C)c(C)c(-c5ccc(F)cc5)c4=O)cc3F)c2cc1OC [Compound 22, N-[4-(6,7-Dimethoxyquinolin-4-yl)oxy-3-fluorophenyl]-5-(4-fluorophenyl)-6-methyl-4-oxo-1-propan-2-ylpyridine-3-carboxamide] | – | < 100 nM | –
8 | COc1cc2nccc(Oc3ccc(NC(=O)c4cn(C5CC5)cc(-c5ccc(F)cc5)c4=O)cc3F)c2nc1OC [Compound 41, 1-Cyclopropyl-N-[4-[(6,7-dimethoxy-1,5-naphthyridin-4-yl)oxy]-3-fluorophenyl]-5-(4-fluorophenyl)-4-oxopyridine-3-carboxamide] | – | < 100 nM | –
9 | COc1cc2nccc(Oc3ccc(NC(=O)c4cn(C5CCCC5)c(C)c(-c5ccc(F)c(Cl)c5)c4=O)cc3F)c2nc1OC [Compound 27, 5-(3-Chloro-4-fluorophenyl)-1-cyclopentyl-N-[4-[(6,7-dimethoxy-1,5-naphthyridin-4-yl)oxy]-3-fluorophenyl]-6-methyl-4-oxopyridine-3-carboxamide] | – | < 100 nM | –
10 | COc1cc2nccc(Oc3ccc(NC(=O)c4cn(CC(F)(F)F)c(C)c(-c5ccc(F)cc5)c4=O)cc3)c2cc1OC [Compound 260, N-[4-(6,7-Dimethoxyquinolin-4-yl)oxyphenyl]-5-(4-fluorophenyl)-6-methyl-4-oxo-1-(2,2,2-trifluoroethyl)pyridine-3-carboxamide] | < 100 nM | – | IC50 [1, 4]: < 100 nM
11 | COc1cnc2c(Oc3ccc(NC(=O)c4cn(C)c(C)c(-c5ccc(F)cc5C)c4=O)cc3)ccnc2c1 [Compound 187, 5-(4-Fluoro-2-methylphenyl)-N-[4-[(7-methoxy-1,5-naphthyridin-4-yl)oxy]phenyl]-1,6-dimethyl-4-oxopyridine-3-carboxamide] | < 100 nM | – | IC50 [1, 4]: < 100 nM
12 | COc1cc2nccc(Oc3ccc(NC(=O)c4cn(C(C)C)c(C)c(-c5ccc(F)cc5)c4=O)cc3F)c2nc1OC [Compound 21, N-[4-[(6,7-Dimethoxy-1,5-naphthyridin-4-yl)oxy]-3-fluorophenyl]-5-(4-fluorophenyl)-6-methyl-4-oxo-1-propan-2-ylpyridine-3-carboxamide] | – | < 100 nM | –
13 | COCCOc1ccc2nccc(Oc3ccc(NC(=O)c4c(C)nc(C)c(-c5ccc(F)cc5)c4O)cc3F)c2n1 [Compound 349, N-[3-fluoro-4-[[6-(2-methoxyethoxy)-1,5-naphthyridin-4-yl]oxy]phenyl]-5-(4-fluorophenyl)-4-hydroxy-2,6-dimethylpyridine-3-carboxamide] | < 100 nM | – | IC50 [1, 4]: < 100 nM
14 | CNc1ncc(C(=O)Nc2ccc(Oc3ccnc4cc(OC)c(OC)nc34)c(F)c2)c(=O)n1-c1ccc(F)cc1 [Compound 99, N-[4-[(6,7-Dimethoxy-1,5-naphthyridin-4-yl)oxy]-3-fluorophenyl]-1-(4-fluorophenyl)-2-(methylamino)-6-oxopyrimidine-5-carboxamide] | – | < 100 nM | –
15 | COc1cc2nccc(Oc3ccc(NC(=O)c4cncc(-c5ccc(F)cc5)c4O)cc3F)c2nc1OC [Compound 42, N-[4-[(6,7-Dimethoxy-1,5-naphthyridin-4-yl)oxy]-3-fluorophenyl]-5-(4-fluorophenyl)-4-hydroxypyridine-3-carboxamide] | – | < 100 nM | –
16 | COc1cc2nccc(Oc3ccc(NC(=O)c4cn(C(C)C)c(C)c(-c5ccc(F)c(Cl)c5)c4=O)cc3F)c2nc1OC [Compound 24, 5-(3-Chloro-4-fluorophenyl)-N-[4-[(6,7-dimethoxy-1,5-naphthyridin-4-yl)oxy]-3-fluorophenyl]-6-methyl-4-oxo-1-propan-2-ylpyridine-3-carboxamide] | – | < 100 nM | –
17 | COc1cc2nccc(Oc3ccc(NC(=O)c4cn(C(C)C)c(C)c(-c5ccc(Cl)c(Cl)c5)c4=O)cc3F)c2nc1OC [Compound 25, 5-(3,4-Dichlorophenyl)-N-[4-[(6,7-dimethoxy-1,5-naphthyridin-4-yl)oxy]-3-fluorophenyl]-6-methyl-4-oxo-1-propan-2-ylpyridine-3-carboxamide] | – | < 100 nM | –
18 | COc1cc2nccc(Oc3ccc(NC(=O)c4cn(C5CCCC5)c(C)c(-c5ccc(F)cc5)c4=O)cc3F)c2nc1OC [Compound 26] | – | < 100 nM | –
19 | COc1cc2nccc(Oc3ccc(NC(=O)c4cn(C)cc(-c5ccc(F)cc5)c4=O)cc3F)c2nc1OC [Compound 45, N-[4-[(6,7-Dimethoxy-1,5-naphthyridin-4-yl)oxy]-3-fluorophenyl]-5-(4-fluorophenyl)-1-methyl-4-oxopyridine-3-carboxamide] | – | < 100 nM | –
20 | COc1cc2nccc(Oc3ccc(NC(=O)c4cn(C5COC5)cc(-c5ccc(F)cc5)c4=O)cc3F)c2nc1OC [Compound 47, N-[4-[(6,7-Dimethoxy-1,5-naphthyridin-4-yl)oxy]-3-fluorophenyl]-5-(4-fluorophenyl)-1-(oxetan-3-yl)-4-oxopyridine-3-carboxamide] | – | < 100 nM | –
21 | COc1cc2nccc(Oc3ccc(NC(=O)c4cn(C5CCCC5)cc(-c5ccc(F)cc5)c4=O)cc3F)c2nc1OC [Compound 46, 1-Cyclopentyl-N-[4-[(6,7-dimethoxy-1,5-naphthyridin-4-yl)oxy]-3-fluorophenyl]-5-(4-fluorophenyl)-4-oxopyridine-3-carboxamide] | – | < 100 nM | –
22 | COc1cc2nccc(Oc3ccc(NC(=O)c4cnc(SC(C)C)n(-c5ccc(F)cc5)c4=O)cc3)c2cc1OC [Compound 539, N-[4-(6,7-dimethoxyquinolin-4-yl)oxyphenyl]-1-(4-fluorophenyl)-6-oxo-2-propan-2-ylsulfanylpyrimidine-5-carboxamide] | < 100 nM | – | –
